The record followed here is patent publication US20250115598A1 (Anaxis Pharma Pty Ltd, priority 2021, published 2025).

Bounds are passed on as bounds.

In general, Kd refers to the constant that tells how readily two partners part at equilibrium.

Assay [1] concerns the target human RIPK1 (Homo sapiens (Human), UniProt Q13546). The experiment in a line: KINOMEscan binding assay, human RIPK1. As to conditions: Table 21. As for the experimental part:
(§1) Binding affinity of the test compounds for human MLKL (full length), mouse MLKL (full length), human RIPK1 and human RIPK3 was determined using the KINOMEscan™ technology developed by DiscoverX (USA; http://www.discoverx.com). The assay was conducted according to manufacturer instructions.
(§2) Kinase assays. For most assays, kinase-tagged T7 phage strains were grown in parallel in 24-well blocks in an E. coli host derived from the BL21 strain. E. coli were grown to log-phase and infected with T7 phage from a frozen stock (multiplicity of infection=0.4) and incubated with shaking at 32° C. until lysis (90-150 minutes). The lysates were centrifuged (6,000×g) and filtered (0.2 μm) to remove cell debris. The remaining kinases were produced in HEK-293 cells and subsequently tagged with DNA for qPCR detection. […] The liganded beads were blocked with excess biotin and washed with blocking buffer (SeaBlock (Pierce), 1% BSA, 0.05% Tween 20, 1 mM DTT) to remove unbound ligand and to reduce non-specific phage binding. […] All reactions were performed in polypropylene 384-well plates in a final volume of 20 μL. […] The kinase concentration in the eluates was measured by qPCR.
(§3) An 11-point 3-fold serial dilution of each test compound was prepared in 100% DMSO at 100× final test concentration and subsequently diluted to 1× in the assay (final DMSO concentration=1%). Most Kos were determined using a compound top concentration=30,000 nM.
(§4) KD for each test compound was calculated with a standard dose-response curve using the Hill equation (equation (1)): […]
(§5) The Hill Slope was set to −1.
(§6) Curves were fitted using a non-linear least square fit with the Levenberg-Marquardt algorithm.

Assay [2] addresses human RIPK3 (Homo sapiens (Human), UniProt Q9Y572). The experiment in a line: KINOMEscan binding assay, human RIPK3. As to conditions: Table 21. How it is done: as §1, §2, §3, §4, §5, §6

Sequence of human RIPK1 (Q13546 whole entry): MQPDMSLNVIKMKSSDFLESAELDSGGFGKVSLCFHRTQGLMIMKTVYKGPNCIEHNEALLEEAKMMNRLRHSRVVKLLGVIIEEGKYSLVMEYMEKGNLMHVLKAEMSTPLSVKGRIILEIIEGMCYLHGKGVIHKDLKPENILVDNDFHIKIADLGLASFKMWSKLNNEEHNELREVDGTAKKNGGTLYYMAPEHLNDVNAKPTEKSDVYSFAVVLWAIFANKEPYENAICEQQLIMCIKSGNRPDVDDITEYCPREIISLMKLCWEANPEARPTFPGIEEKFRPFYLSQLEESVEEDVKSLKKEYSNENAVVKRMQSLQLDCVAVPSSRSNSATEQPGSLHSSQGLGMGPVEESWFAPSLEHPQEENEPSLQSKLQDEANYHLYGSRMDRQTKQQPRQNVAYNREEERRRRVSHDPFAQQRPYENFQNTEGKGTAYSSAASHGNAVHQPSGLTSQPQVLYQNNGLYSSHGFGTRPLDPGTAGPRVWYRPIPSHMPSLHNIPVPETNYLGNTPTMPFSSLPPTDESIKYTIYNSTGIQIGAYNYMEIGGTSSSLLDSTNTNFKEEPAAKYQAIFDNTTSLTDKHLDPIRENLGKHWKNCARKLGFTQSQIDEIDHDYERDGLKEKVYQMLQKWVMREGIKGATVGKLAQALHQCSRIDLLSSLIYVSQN
Sequence of human RIPK3 (Q9Y572 whole entry): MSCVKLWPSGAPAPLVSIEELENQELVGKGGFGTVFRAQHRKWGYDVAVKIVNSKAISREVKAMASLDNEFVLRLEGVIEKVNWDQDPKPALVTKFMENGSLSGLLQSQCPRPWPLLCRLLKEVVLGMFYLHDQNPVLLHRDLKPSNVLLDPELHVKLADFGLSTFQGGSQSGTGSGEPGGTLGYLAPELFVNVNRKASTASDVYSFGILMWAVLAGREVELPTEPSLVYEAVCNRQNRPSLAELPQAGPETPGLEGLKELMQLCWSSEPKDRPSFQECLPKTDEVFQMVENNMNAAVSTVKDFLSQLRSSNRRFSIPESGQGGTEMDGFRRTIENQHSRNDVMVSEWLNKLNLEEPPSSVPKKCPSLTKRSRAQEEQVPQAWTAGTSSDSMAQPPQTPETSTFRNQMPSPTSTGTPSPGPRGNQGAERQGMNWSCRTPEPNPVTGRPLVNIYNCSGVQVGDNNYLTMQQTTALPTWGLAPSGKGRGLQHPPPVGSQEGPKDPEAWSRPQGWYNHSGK

As for `C[C@H](Oc1cc(-c2nn(C)c3c(-c4cc(C#N)n(C)c4)cnc(N)c23)ccc1NS(=O)(=O)C(F)F)c1ccc(F)cc1` [Compound 83, (S)-N-(4-(4-amino-7-(5-cyano-1-methyl-1H-pyrrol-3-yl)-1-methyl-1H-pyrazolo[4,3-c]pyridin-3-yl)-2-(1-(4-fluorophenyl)ethoxy)phenyl)-1,1-difluoromethanesulfonamide], the Kd in assay [1] and in assay [2] was over 10 µM in each case.

`C[C@H](Oc1cc(-c2nn(C)c3c(-c4cccc(Cl)c4)cnc(N)c23)ccc1NS(=O)(=O)C(F)F)c1ccc(F)cc1` [Compound 84, (S)-N-(4-(4-amino-7-(3-chlorophenyl)-1-methyl-1H-pyrazolo[4,3-c]pyridin-3-yl)-2-(1-(4-fluorophenyl)ethoxy)phenyl)-1,1-difluoromethanesulfonamide]: the Kd in assay [1] and in assay [2] was over 10 µM each time.

On to `C[C@H](Oc1cc(-c2nn(C)c3c(-c4ccccc4Cl)cnc(N)c23)ccc1NS(=O)(=O)C(F)F)c1ccc(F)cc1` [Compound 85, (S)-N-(4-(4-amino-7-(2-chlorophenyl)-1-methyl-1H-pyrazolo[4,3-c]pyridin-3-yl)-2-(1-(4-fluorophenyl)ethoxy)phenyl)-1,1-difluoromethanesulfonamide], for which the Kd in assay [1] and in assay [2] was over 10 µM each time.

For `C[C@H](Oc1cc(-c2nn(C)c3c(-c4ccccc4)cnc(N)c23)ccc1NS(=O)(=O)C(F)F)c1ccc(F)cc1` [Compound 86, (S)-N-(4-(4-amino-1-methyl-7-phenyl-1H-pyrazolo[4,3-c]pyridin-3-yl)-2-(1-(4-fluorophenyl)ethoxy)phenyl)-1,1-difluoromethanesulfonamide], the Kd in assay [1] and in assay [2] was over 10 µM in each case.

For the compound `C[C@H](Oc1cc(-c2nn(C)c3c(-c4ccc(Cl)cc4)cnc(N)c23)ccc1NS(=O)(=O)C(F)F)c1ccc(F)cc1` [Compound 87, (S)-N-(4-(4-amino-7-(4-chlorophenyl)-1-methyl-1H-pyrazolo[4,3-c]pyridin-3-yl)-2-(1-(4-fluorophenyl)ethoxy)phenyl)-1,1-difluoromethanesulfonamide], the Kd in assay [1] and in assay [2] was over 10 µM throughout.

On to `C[C@H](Oc1cc(-c2nn(C)c3c(-c4cnn(CC5CCCN5)c4)cnc(N)c23)ccc1NS(=O)(=O)C(F)F)c1ccc(F)cc1` (stereo partly drawn) [Compound 88, N-(4-(4-amino-1-methyl-7-(1-(pyrrolidin-2-ylmethyl)-1H-pyrazol-4-yl)-1H-pyrazolo[4,3-c]pyridin-3-yl)-2-((S)-1-(4-fluorophenyl)ethoxy)phenyl)-1,1-difluoromethane-sulfonamide], for which the Kd in assay [1] and in assay [2] was over 10 µM in each case.

`C[C@H](Oc1cc(-c2nn(C)c3c(-c4cnn5c4CNCC5)cnc(N)c23)ccc1NS(=O)(=O)C(F)F)c1ccc(F)cc1` [Compound 90, (S)—N-(4-(4-amino-1-methyl-7-(4,5,6,7-tetrahydropyrazolo[1,5-a]pyrazin-3-yl)-1H-pyrazolo[4,3-c]pyridin-3-yl)-2-(1-(4-fluorophenyl)ethoxy)phenyl)-1,1-difluoromethanesulfonamide]: the Kd in assay [1] and in assay [2] was over 10 µM each time.

For `C[C@H](Oc1cc(-c2nn(C)c3c(-c4cnn5c4CN(C)CC5)cnc(N)c23)ccc1NS(=O)(=O)C(F)F)c1ccc(F)cc1` [Compound 91, (S)—N-(4-(4-amino-1-methyl-7-(5-methyl-4,5,6,7-tetrahydropyrazolo[1,5-a]pyrazin-3-yl)-1H-pyrazolo[4,3-c]pyridin-3-yl)-2-(1-(4-fluorophenyl)ethoxy)phenyl)-1,1-difluoromethanesulfonamide], the Kd in assay [1] and in assay [2] was over 10 µM each time.

Consider `CC1CNCC(n2cc(-c3cnc(N)c4c(-c5ccc(NS(=O)(=O)C(F)F)c(O[C@@H](C)c6ccc(F)cc6)c5)nn(C)c34)cn2)C1` (stereo partly drawn) [Compound 95, N-(4-(4-amino-1-methyl-7-(1-(5-methylpiperidin-3-yl)-1H-pyrazol-4-yl)-1H-pyrazolo[4,3-c]pyridin-3-yl)-2-((S)-1-(4-fluorophenyl)ethoxy)phenyl)-1,1-difluoromethane-sulfonamide], for which the Kd in assay [1] and in assay [2] was over 10 µM in each case.

For `C[C@H](Oc1cc(-c2nn(C)c3c(-c4cnn(C5CC6(C5)CN(C)C6)c4)cnc(N)c23)ccc1NS(=O)(=O)C(F)F)c1ccc(F)cc1` [Compound 99, (S)-N-(4-(4-amino-1-methyl-7-(1-(2-methyl-2-azaspiro[3.3]heptan-6-yl)-1H-pyrazol-4-yl)-1H-pyrazolo[4,3-c]pyridin-3-yl)-2-(1-(4-fluorophenyl)eth-oxy)phenyl)-1,1-difluoromethane-sulfonamide], the Kd in assay [1] and in assay [2] was over 10 µM in each case.

Turning to `C[C@H](Oc1cc(-c2nn(C)c3c(-c4cnc(N(C)C)nc4)cnc(N)c23)ccc1NS(=O)(=O)C(F)F)c1ccc(F)cc1` [Compound 106, (S)-N-(4-(4-amino-7-(2-(dimethylamino)pyrimidin-5-yl)-1-methyl-1H-pyrazolo[4,3-c]pyridin-3-yl)-2-(1-(4-fluorophenyl)ethoxy)phenyl)-1,1-difluoromethanesulfonamide], the Kd in assay [1] and in assay [2] was over 10 µM throughout.

As to `C[C@H](Oc1cc(-c2nn(C)c3c(-c4ccc(N5CCN(C)CC5)nc4)cnc(N)c23)ccc1NS(=O)(=O)C(F)F)c1ccc(F)cc1` [Compound 107, (S)-N-(4-(4-amino-1-methyl-7-(6-(4-methylpiperazin-1-yl)pyridin-3-yl)-1H-pyrazolo[4,3-c]pyridin-3-yl)-2-(1-(4-fluorophenyl)ethoxy)phenyl)-1,1-difluoromethanesulfonamide], the Kd in assay [1] and in assay [2] was over 10 µM each time.

Take `COC[C@H](Oc1cc(-c2nn(C)c3c(-c4cnn(C5CCOCC5)c4)cnc(N)c23)ccc1NS(=O)(=O)C(F)F)c1ccc(F)cc1` [Compound 111, (R)—N-(4-(4-amino-1-methyl-7-(1-(tetrahydro-2H-pyran-4-yl)-1H-pyrazol-4-yl)-1H-pyrazolo[4,3-c]pyridin-3-yl)-2-(1-(4-fluorophenyl)-2-methoxyethoxy)phenyl)-1,1-difluoromethanesulfonamide]: the Kd in assay [1] and in assay [2] was over 10 µM throughout.

For `COC[C@@H](Oc1cc(-c2nn(C)c3c(-c4cnn(C5CCOCC5)c4)cnc(N)c23)ccc1NS(=O)(=O)C(F)F)c1ccc(F)cc1` [Compound 112, (S)—N-(4-(4-amino-1-methyl-7-(1-(tetrahydro-2H-pyran-4-yl)-1H-pyrazol-4-yl)-1H-pyrazolo[4,3-c]pyridin-3-yl)-2-(1-(4-fluorophenyl)-2-methoxyethoxy)phenyl)-1,1-difluoromethanesulfonamide], the Kd in assay [1] and in assay [2] was over 10 µM in each case.

In the case of `C[C@H](Oc1cc(-c2nn(C)c3c(-c4cnc(N5CCCC5)nc4)cnc(N)c23)ccc1NS(=O)(=O)C(F)F)c1ccc(F)cc1` [Compound 114, (S)-N-(4-(4-amino-1-methyl-7-(2-(pyrrolidin-1-yl)pyrimidin-5-yl)-1H-pyrazolo[4,3-c]pyridin-3-yl)-2-(1-(4-fluorophenyl)ethoxy)phenyl)-1,1-difluoromethanesulfonamide], the Kd in assay [1] and in assay [2] was over 10 µM in each case.

On to `C[C@H](Oc1cc(-c2nn(C)c3c(-c4ccc(N5CCOCC5)nc4)cnc(N)c23)ccc1NS(=O)(=O)C(F)F)c1ccc(F)cc1` [Compound 115, (S)-N-(4-(4-amino-1-methyl-7-(6-morpholinopyridin-3-yl)-1H-pyrazolo[4,3-c]pyridin-3-yl)-2-(1-(4-fluorophenyl)ethoxy)phenyl)-1,1-difluoromethanesulfonamide], for which the Kd in assay [1] and in assay [2] was over 10 µM throughout.

In the case of `C[C@H](Oc1cc(-c2nn(C)c3c(-c4cnn(CC(F)(F)F)c4)cnc(N)c23)ccc1NS(=O)(=O)C(F)F)c1ccc(F)cc1` [Compound 116, (S)-N-(4-(4-amino-1-methyl-7-(1-(2,2,2-trifluoroethyl)-1H-pyrazol-4-yl)-1H-pyrazolo[4,3-c]pyridin-3-yl)-2-(1-(4-fluorophenyl)ethoxy)phenyl)-1,1-difluoromethanesulfonamide], the Kd in assay [1] and in assay [2] was over 10 µM in each case.

In the case of `C[C@H](Oc1cc(-c2nn(C)c3c(-c4ccc(C(F)(F)F)nc4)cnc(N)c23)ccc1NS(=O)(=O)C(F)F)c1ccc(F)cc1` [Compound 117, (S)-N-(4-(4-amino-1-methyl-7-(6-(trifluoromethyl)pyridin-3-yl)-1H-pyrazolo[4,3-c]pyridin-3-yl)-2-(1-(4-fluorophenyl)ethoxy)phenyl)-1,1-difluoromethanesulfonamide], the Kd in assay [1] and in assay [2] was over 10 µM throughout.

With `C[C@H](Oc1cc(-c2nn(C)c3c(-c4cnn(C5CCOCC5)c4)cnc(N)c23)ccc1NS(=O)(=O)C(F)F)c1ccccc1F` [Compound 118, (S)-N-(4-(4-amino-1-methyl-7-(1-(tetrahydro-2H-pyran-4-yl)-1H-pyrazol-4-yl)-1H-pyrazolo[4,3-c]pyridin-3-yl)-2-(1-(2-fluoro-phenyl)ethoxy)phenyl)-1,1-difluoromethane-sulfonamide], the Kd in assay [1] and in assay [2] was over 10 µM throughout.
